The assay addresses soluble guanylate cyclase (human GUCYA3 and GUCYB3) overexpressed in CHO cells (Homo sapiens (Human), UniProt Q02153). Description: CHO cellular assay (cGMP production, Cisbio cGMP HTRF kit). The class given is cell-based. As to conditions: CHO GUCY clone 8E10, cGMP production, assay buffer with 1 mM IBMX and 20 uM ODQ, 1 h room temperature; minimum quantification limit 0.5 nM (listed 0.5 nM means ≤0.5 nM). Put shortly: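 Stable CHO-K1 clone 8E10 expressing human sGC (GUCYA3/GUCYB3), 3000 cells/well, exposed 1 h at room temperature to activators in HBSS, 0.1% BSA, 1 mM IBMX, 20 uM ODQ, 0.5% DMSO final. cGMP was measured by HTRF and interpolated from a standard curve. EC50 came from a 4-parameter sigmoidal fit.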
Background: Time-resolved FRET reads energy transfer from a long-lived donor to a nearby acceptor.

This note sets out measurements from patent US10550102B2, “Indane and indoline derivatives and the use thereof as soluble guanylate cyclase activators” (NOVARTIS AG, priority 2014, dated 2020).

Usually EC50 stands for the midpoint of the concentration-response curve. A low value points to greater potency.

Chain of soluble guanylate cyclase (human GUCYA3 and GUCYB3) overexpressed in CHO cells (Q02108 whole entry partner): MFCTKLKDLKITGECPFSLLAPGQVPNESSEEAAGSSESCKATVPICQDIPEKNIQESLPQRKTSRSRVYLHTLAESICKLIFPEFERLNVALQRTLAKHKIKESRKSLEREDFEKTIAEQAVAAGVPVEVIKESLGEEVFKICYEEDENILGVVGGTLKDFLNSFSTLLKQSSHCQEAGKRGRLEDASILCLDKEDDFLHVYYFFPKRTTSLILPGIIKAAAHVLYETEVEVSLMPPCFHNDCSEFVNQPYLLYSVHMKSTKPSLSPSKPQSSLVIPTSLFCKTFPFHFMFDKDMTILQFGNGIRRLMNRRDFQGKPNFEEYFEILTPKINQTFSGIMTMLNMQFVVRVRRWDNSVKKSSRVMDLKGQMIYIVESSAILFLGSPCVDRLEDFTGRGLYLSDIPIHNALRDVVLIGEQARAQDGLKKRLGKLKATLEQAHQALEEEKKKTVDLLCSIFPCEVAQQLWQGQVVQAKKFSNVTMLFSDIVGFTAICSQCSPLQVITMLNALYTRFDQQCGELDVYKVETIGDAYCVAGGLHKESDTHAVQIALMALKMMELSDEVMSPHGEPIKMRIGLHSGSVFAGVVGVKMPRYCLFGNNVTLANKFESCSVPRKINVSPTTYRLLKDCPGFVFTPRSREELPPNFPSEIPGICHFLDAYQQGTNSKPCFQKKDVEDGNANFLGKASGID
Chain of soluble guanylate cyclase (human GUCYA3 and GUCYB3) overexpressed in CHO cells (Q02153 whole entry): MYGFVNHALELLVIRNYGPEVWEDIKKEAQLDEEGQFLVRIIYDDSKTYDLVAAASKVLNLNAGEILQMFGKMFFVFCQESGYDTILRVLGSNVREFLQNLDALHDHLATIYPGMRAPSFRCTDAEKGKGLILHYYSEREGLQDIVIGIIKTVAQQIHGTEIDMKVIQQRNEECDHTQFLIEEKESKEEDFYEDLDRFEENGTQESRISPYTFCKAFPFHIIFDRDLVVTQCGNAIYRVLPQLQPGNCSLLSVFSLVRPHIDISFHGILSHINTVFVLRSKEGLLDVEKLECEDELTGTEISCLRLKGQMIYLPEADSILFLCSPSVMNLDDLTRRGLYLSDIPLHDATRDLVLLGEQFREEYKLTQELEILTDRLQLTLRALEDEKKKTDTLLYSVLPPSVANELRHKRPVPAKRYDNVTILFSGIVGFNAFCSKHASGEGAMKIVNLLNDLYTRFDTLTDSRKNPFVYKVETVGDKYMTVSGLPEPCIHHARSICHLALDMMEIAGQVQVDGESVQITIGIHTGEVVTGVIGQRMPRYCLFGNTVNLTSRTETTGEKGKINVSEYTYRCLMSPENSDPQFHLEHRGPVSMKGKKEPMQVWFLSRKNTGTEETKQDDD

Regarding `Cc1cc(C2CCN(C(=O)C3CC3)CC2)ccc1CN1CCc2cccc(-c3cccc(-n4ncc(C(=O)O)c4C)n3)c21` [Example 21-1, 1-(6-(1-(4-(1-(Cyclopropanecarbonyl)piperidin-4-yl)-2-methylbenzyl)indolin-7-yl)pyridin-2-yl)-5-methyl-1H-pyrazole-4-carboxylic acid], the EC50 is ≤ 0.5 nM.

In turn, “(−)-Ethyl-1-(6-(3-((3-ethyl-4-(1-(isopropoxycarbonyl)piperidin-4-yl)phenyl)amino)-2,3-dihydro-1H-inden-4-yl)pyridin-2-yl)-1H-pyrazole-4-carboxylic Acid [Example 51b]” came in with an EC50 of 3 nM.
